Measured values reported in patent EP0908457B1, “3-(1,2-benzisothiazol- and isoxazol-5-Y1)-2,4(1H,3H)-pyrimidinedione or thione and 3-(1,2-benzisothiazol- and isoxazol-5-y1)-4(3H)-pyrimidinone or thione herbicidal agents” (BASF AKTIENGESELLSCHAFT, priority 1997, dated 1999).

Tests used:
Format in all cases: in vivo
[1] = tested on: Echinochloa oryzoides (Ard.) Fritsch.; assay: Preemergence weed control under flooded paddy conditions, ECHORC (Watergrass (Calif.)); details: preemergence, flooded paddy; as to herbicidal effect rating, ECHORC: meaning of each grade not given here
Cyperus iria = assay: Preemergence weed control under flooded paddy conditions, CYPIR (Rice Flatsedge); details: preemergence, flooded paddy; as to herbicidal effect rating, CYPIR: meaning of each grade not given here
[2] = tested on: Cyperus serotinus, Rottb.; assay: Preemergence weed control under flooded paddy conditions, CYPSE (Flatsedge); details: preemergence; as to herbicidal effect rating, CYPSE: meaning of each grade not given here
[3] = tested on: Monochoria vaginalis, Presl.; assay: Preemergence weed control under flooded paddy conditions, MOOVA (Monochoria); details: preemergence, flooded paddy; as to herbicidal effect rating, MOOVA: meaning of each grade not given here
Sagittaria pygmaea, L. = assay: Preemergence weed control under flooded paddy conditions, SAGPY (Arrowhead (Pygmaea)); details: preemergence, flooded paddy; as to herbicidal effect rating, SAGPY: meaning of each grade not given here
[4] = Rate 0.0320 kg/ha, rated 3-4 weeks after treatment
[5] = Rate 0.0620 kg/ha, rated 3-4 weeks after treatment
[6] = Rate 0.1250 kg/ha, rated 3-4 weeks after treatment
[7] = Rate 0.2500 kg/ha, rated 3-4 weeks after treatment
[8] = 0.0320 kg/ha, rated three to four weeks after treatment
[9] = 0.0620 kg/ha, rated three to four weeks after treatment
[10] = 0.1250 kg/ha, rated three to four weeks after treatment
[11] = 0.2500 kg/ha, rated three to four weeks after treatment
[12] = Rate 0.0320 kg/ha, rated three to four weeks after treatment
[13] = Rate 0.0620 kg/ha, rated three to four weeks after treatment
[14] = Rate 0.1250 kg/ha, rated three to four weeks after treatment
[15] = Rate 0.2500 kg/ha, rated three to four weeks after treatment

Compound: Cc1ccc(OCC(=O)OCCCCCO[Si](C)(C)C(C)(C)C)c(-c2nsc3ccc(-n4c(=O)cc(C(F)(F)F)n(C)c4=O)cc23)c1 [Example 534, Acetic acid, {{2-{5-[3,6-dihydro-3-methyl-2,6-dioxo-4-(trifluoromethyl)-1(2H)-pyrimidinyl]-1,2-benzisothiazol-3-yl}-p-tolyl}oxy}-, 5-(tert-butyldimethylsiloxy)pentyl ester]
- herbicidal effect rating, ECHORC [1, 4]: 3.5
- herbicidal effect rating, ECHORC [1, 5]: 4.5
- herbicidal effect rating, ECHORC [1, 6]: 9.0
- herbicidal effect rating, ECHORC [1, 7]: 9.0
- herbicidal effect rating, CYPIR (Cyperus iria; [4]): 0.0
- herbicidal effect rating, CYPIR (Cyperus iria; [5]): 3.0
- herbicidal effect rating, CYPIR (Cyperus iria; [6]): 3.0
- herbicidal effect rating, CYPIR (Cyperus iria; [7]): 9.0
- herbicidal effect rating, CYPSE [2, 4]: 0.0
- herbicidal effect rating, CYPSE [2, 5]: 0.0
- herbicidal effect rating, CYPSE [2, 6]: 0.0
- herbicidal effect rating, CYPSE [2, 7]: 0.0
- herbicidal effect rating, MOOVA [3, 4]: 4.0
- herbicidal effect rating, MOOVA [3, 5]: 9.0
- herbicidal effect rating, MOOVA [3, 6]: 9.0
- herbicidal effect rating, MOOVA [3, 7]: 9.0
- herbicidal effect rating, SAGPY (Sagittaria pygmaea, L.; [4]): 0.0
- herbicidal effect rating, SAGPY (Sagittaria pygmaea, L.; [5]): 0.0
- herbicidal effect rating, SAGPY (Sagittaria pygmaea, L.; [6]): 0.0
- herbicidal effect rating, SAGPY (Sagittaria pygmaea, L.; [7]): 0.0

Compound: Cn1c(C(F)(F)F)cc(=O)n(-c2ccc3snc(COC(=O)c4ccncc4)c3c2)c1=O [Example 463, 2,4(1H,3H)-Pyrimidinedione, 3-[3-(hydroxymethyl)-1,2-benzisothiazol-5-yl]-1-methyl-6-(trifluoromethyl)-, isonicotinate (ester)]
- ECHORC herbicidal rating [1, 8]: 2.0
- ECHORC herbicidal rating [1, 9]: 6.0
- ECHORC herbicidal rating [1, 10]: 9.0
- ECHORC herbicidal rating [1, 11]: 9.0
- CYPIR herbicidal rating (Cyperus iria; [8]): 5.0
- CYPIR herbicidal rating (Cyperus iria; [9]): 6.0
- CYPIR herbicidal rating (Cyperus iria; [10]): 9.0
- CYPIR herbicidal rating (Cyperus iria; [11]): 9.0
- CYPSE herbicidal rating [2, 8]: 2.0
- CYPSE herbicidal rating [2, 10]: 6.0
- CYPSE herbicidal rating [2, 11]: 7.0
- MOOVA herbicidal rating [3, 8]: 7.0
- MOOVA herbicidal rating [3, 9]: 9.0
- MOOVA herbicidal rating [3, 10]: 9.0
- MOOVA herbicidal rating [3, 11]: 9.0
- SAGPY herbicidal rating (Sagittaria pygmaea, L.; [8]): 0.0
- SAGPY herbicidal rating (Sagittaria pygmaea, L.; [9]): 3.0
- SAGPY herbicidal rating (Sagittaria pygmaea, L.; [10]): 5.0
- SAGPY herbicidal rating (Sagittaria pygmaea, L.; [11]): 7.0

Compound: Cn1c(C(F)(F)F)cc(=O)n(-c2ccc3snc(CSc4ccccc4)c3c2)c1=O [Example 392, 2,4(1H,3H)-Pyrimidinedione, 1-methyl-3-{3-[(phenylthio)methyl]-1,2-benzisothiazol-5-yl}-6-(trifluoromethyl)-]
- herbicidal effect rating, ECHORC [1, 12]: 5.0
- herbicidal effect rating, ECHORC [1, 13]: 7.0
- herbicidal effect rating, ECHORC [1, 14]: 9.0
- herbicidal effect rating, ECHORC [1, 15]: 9.0
- herbicidal effect rating, CYPIR (Cyperus iria; [12]): 0.0
- herbicidal effect rating, CYPIR (Cyperus iria; [13]): 0.0
- herbicidal effect rating, CYPIR (Cyperus iria; [14]): 3.0
- herbicidal effect rating, CYPIR (Cyperus iria; [15]): 7.0
- herbicidal effect rating, CYPSE [2, 12]: 0.0
- herbicidal effect rating, CYPSE [2, 13]: 0.0
- herbicidal effect rating, CYPSE [2, 14]: 0.0
- herbicidal effect rating, CYPSE [2, 15]: 0.0
- herbicidal effect rating, MOOVA [3, 12]: 6.0
- herbicidal effect rating, MOOVA [3, 13]: 7.0
- herbicidal effect rating, MOOVA [3, 14]: 7.0
- herbicidal effect rating, MOOVA [3, 15]: 9.0
- herbicidal effect rating, SAGPY (Sagittaria pygmaea, L.; [12]): 0.0
- herbicidal effect rating, SAGPY (Sagittaria pygmaea, L.; [13]): 0.0
- herbicidal effect rating, SAGPY (Sagittaria pygmaea, L.; [14]): 0.0
- herbicidal effect rating, SAGPY (Sagittaria pygmaea, L.; [15]): 0.0

Compound: Cn1c(C(F)(F)F)cc(=O)n(-c2ccc3snc(C(C#N)=Cc4ccccc4F)c3c2)c1=O [Example 605, 1,2-Benzisothiazole-3-acetonitrile, 5-[3,6-dihydro-3-methyl-2,6-dioxo-4-(trifluoromethyl)-1(2H)-pyrimidinyl]-alpha-(o-fluorobenzylidene)-]
- herbicidal effect rating, ECHORC [1, 12]: 4.0
- herbicidal effect rating, ECHORC [1, 13]: 4.0
- herbicidal effect rating, ECHORC [1, 14]: 7.0
- herbicidal effect rating, ECHORC [1, 15]: 7.0
- herbicidal effect rating, CYPIR (Cyperus iria; [12]): 1.0
- herbicidal effect rating, CYPIR (Cyperus iria; [13]): 3.0
- herbicidal effect rating, CYPIR (Cyperus iria; [14]): 7.0
- herbicidal effect rating, CYPIR (Cyperus iria; [15]): 7.0
- herbicidal effect rating, CYPSE [2, 12]: 0.0
- herbicidal effect rating, CYPSE [2, 13]: 0.0
- herbicidal effect rating, CYPSE [2, 14]: 0.0
- herbicidal effect rating, CYPSE [2, 15]: 0.0
- herbicidal effect rating, MOOVA [3, 12]: 9.0
- herbicidal effect rating, MOOVA [3, 13]: 9.0
- herbicidal effect rating, MOOVA [3, 14]: 9.0
- herbicidal effect rating, MOOVA [3, 15]: 9.0
- herbicidal effect rating, SAGPY (Sagittaria pygmaea, L.; [12]): 4.0
- herbicidal effect rating, SAGPY (Sagittaria pygmaea, L.; [13]): 4.0
- herbicidal effect rating, SAGPY (Sagittaria pygmaea, L.; [14]): 5.0
- herbicidal effect rating, SAGPY (Sagittaria pygmaea, L.; [15]): 7.0
